How the values were obtained:
CCRF-CEM = experiment: Cytotoxicity against human CCRF-CEM cells assessed as growth inhibition at 10 uM after 48 hrs by sulforhodamine B assay; format: functional; settings: read-out: GI
HL-60(TB) = experiment: Cytotoxicity against human HL-60(TB) cells assessed as growth inhibition at 10 uM after 48 hrs by sulforhodamine B assay; format: functional; settings: read-out: GI
K562 = experiment: Cytotoxicity against human K562 cells assessed as growth inhibition at 10 uM after 48 hrs by sulforhodamine B assay; format: functional; settings: read-out: GI
MOLT-4 = experiment: Cytotoxicity against human MOLT-4 cells assessed as growth inhibition at 10 uM after 48 hrs by sulforhodamine B assay; format: functional; settings: read-out: GI
RPMI-8226 = experiment: Cytotoxicity against human RPMI-8226 cells assessed as growth inhibition at 10 uM after 48 hrs by sulforhodamine B assay; format: functional; settings: read-out: GI
SR = experiment: Cytotoxicity against human SR cells assessed as growth inhibition at 10 uM after 48 hrs by sulforhodamine B assay; format: functional; settings: read-out: GI
A549 = experiment: Cytotoxicity against human A549 cells assessed as growth inhibition at 10 uM after 48 hrs by sulforhodamine B assay; format: functional; settings: read-out: GI
NCI-H226 = experiment: Cytotoxicity against human NCI-H226 cells assessed as growth inhibition at 10 uM after 48 hrs by sulforhodamine B assay; format: functional; settings: read-out: GI
NCI-H522 = experiment: Cytotoxicity against human NCI-H522 cells assessed as growth inhibition at 10 uM after 48 hrs by sulforhodamine B assay; format: functional; settings: read-out: GI
HCC 2998 = experiment: Cytotoxicity against human HCC 2998 cells assessed as growth inhibition at 10 uM after 48 hrs by sulforhodamine B assay; format: functional; settings: read-out: GI
HCT-15 = experiment: Cytotoxicity against human HCT-15 cells assessed as growth inhibition at 10 uM after 48 hrs by sulforhodamine B assay; format: functional; settings: read-out: GI
HT-29 = experiment: Cytotoxicity against human HT-29 cells assessed as growth inhibition at 10 uM after 48 hrs by sulforhodamine B assay; format: functional; settings: read-out: GI
KM12 = experiment: Cytotoxicity against human KM12 cells assessed as growth inhibition at 10 uM after 48 hrs by sulforhodamine B assay; format: functional; settings: read-out: GI
LOX IMVI = experiment: Cytotoxicity against human LOX IMVI cells assessed as growth inhibition at 10 uM after 48 hrs by sulforhodamine B assay; format: functional; settings: read-out: GI
M14 = experiment: Cytotoxicity against human M14 cells assessed as growth inhibition at 10 uM after 48 hrs by sulforhodamine B assay; format: functional; settings: read-out: GI
UACC-62 = experiment: Cytotoxicity against human UACC-62 cells assessed as growth inhibition at 10 uM after 48 hrs by sulforhodamine B assay; format: functional; settings: read-out: GI
OVCAR-4 = experiment: Cytotoxicity against human OVCAR-4 cells assessed as growth inhibition at 10 uM after 48 hrs by sulforhodamine B assay; format: functional; settings: read-out: GI
NCI/ADR-RES = experiment: Cytotoxicity against human NCI-ADR-RES cells assessed as growth inhibition at 10 uM after 48 hrs by sulforhodamine B assay; format: functional; settings: read-out: GI
ACHN = experiment: Cytotoxicity against human ACHN cells assessed as growth inhibition at 10 uM after 48 hrs by sulforhodamine B assay; format: functional; settings: read-out: GI
CAKI-1 = experiment: Cytotoxicity against human CAKI-1 cells assessed as growth inhibition at 10 uM after 48 hrs by sulforhodamine B assay; format: functional; settings: read-out: GI
SN12C = experiment: Cytotoxicity against human SN12C cells assessed as growth inhibition at 10 uM after 48 hrs by sulforhodamine B assay; format: functional; settings: read-out: GI
UO-31 = experiment: Cytotoxicity against human UO-31 cells assessed as growth inhibition at 10 uM after 48 hrs by sulforhodamine B assay; format: functional; settings: read-out: GI
DU-145 = experiment: Cytotoxicity against human DU-145 cells assessed as growth inhibition at 10 uM after 48 hrs by sulforhodamine B assay; format: functional; settings: read-out: GI
MCF7 [1] = experiment: Cytotoxicity against human MCF7 cells assessed as growth inhibition at 10 uM after 48 hrs by sulforhodamine B assay; format: functional; settings: read-out: GI
T47D = experiment: Cytotoxicity against human T47D cells assessed as growth inhibition at 10 uM after 48 hrs by sulforhodamine B assay; format: functional; settings: read-out: GI
MCF7 [2] = experiment: Antiproliferative activity against human MCF7 cells assessed as inhibition of cell growth incubated for 48 hrs by MTT assay; format: functional, cell-based; settings: MCF7, 48 h
MCF-10A = experiment: Cytotoxicity against human MCF10A cells assessed as inhibition of cell growth incubated for 48 hrs by MTT assay; format: cell-based
[3] = Selectivity index, ratio of IC50 for human MCF-10A cells to IC50 for human MCF7 cells; format: toxicity; settings: MCF-10A cells versus MCF7 cells, read-out: Ratio IC50
[4] = target: Phosphatidylinositol 4,5-bisphosphate 3-kinase catalytic subunit alpha isoform (Homo sapiens, UniProt P42336); experiment: Inhibition of PI3Kalpha (unknown origin) using PIP2 as substrate preincubated for 10 mins followed by substrate addition and measured after 1 hr by ELISA
MCF7 [5] = experiment: Induction of cell cycle arrest in human MCF7 cells assessed as accumulation of cells at G phase at IC50 concentration by Propidium iodide staining based flow cytometric analysis (reference value: 1.76%); format: functional
MCF7 [6] = experiment: Induction of cell cycle arrest in human MCF7 cells assessed as accumulation of cells at G1 phase at IC50 concentration by Propidium iodide staining based flow cytometric analysis (reference value: 61.45%); format: functional
MCF7 [7] = experiment: Induction of cell cycle arrest in human MCF7 cells assessed as accumulation of cells at G2/M phase at IC50 concentration by Propidium iodide staining based flow cytometric analysis (reference value: 10.94%); format: functional
MCF7 [8] = experiment: Induction of cell cycle arrest in human MCF7 cells assessed as accumulation of cells at S phase at IC50 concentration by Propidium iodide staining based flow cytometric analysis (reference value: 27.61%); format: functional
MCF7 [9] = experiment: Induction of apoptosis in human MCF7 cells assessed as early apoptotic cells at 2.25 uM after 48 hrs by annexin V-FITC/propidium iodide staining based flow cytometric analysis (reference value: 0.36%); format: functional
MCF7 [10] = experiment: Induction of apoptosis in human MCF7 cells assessed as late apoptotic cells at 2.25 uM after 48 hrs by annexin V-FITC/propidium iodide staining based flow cytometric analysis (reference value: 0.14%); format: functional
MCF7 [11] = experiment: Induction of apoptosis in human MCF7 cells assessed as necrotic cells at 2.25 uM after 48 hrs by annexin V-FITC/propidium iodide staining based flow cytometric analysis (reference value: 1.26%); format: functional
[12] = target: Phosphatidylinositol 4,5-bisphosphate 3-kinase catalytic subunit beta isoform (Homo sapiens, UniProt P42338); experiment: Inhibition of PI3Kbeta (unknown origin) using PIP2 as substrate preincubated for 10 mins followed by substrate addition and measured after 1 hr by ELISA
[13] = target: T1, Phosphatidylinositol 4,5-bisphosphate 3-kinase catalytic subunit delta isoform (Homo sapiens, UniProt O00329); experiment: Inhibition of PI3Kdelta (unknown origin) using PIP2 as substrate preincubated for 10 mins followed by substrate addition and measured after 1 hr by ELISA
T1 sequence (O00329 whole entry): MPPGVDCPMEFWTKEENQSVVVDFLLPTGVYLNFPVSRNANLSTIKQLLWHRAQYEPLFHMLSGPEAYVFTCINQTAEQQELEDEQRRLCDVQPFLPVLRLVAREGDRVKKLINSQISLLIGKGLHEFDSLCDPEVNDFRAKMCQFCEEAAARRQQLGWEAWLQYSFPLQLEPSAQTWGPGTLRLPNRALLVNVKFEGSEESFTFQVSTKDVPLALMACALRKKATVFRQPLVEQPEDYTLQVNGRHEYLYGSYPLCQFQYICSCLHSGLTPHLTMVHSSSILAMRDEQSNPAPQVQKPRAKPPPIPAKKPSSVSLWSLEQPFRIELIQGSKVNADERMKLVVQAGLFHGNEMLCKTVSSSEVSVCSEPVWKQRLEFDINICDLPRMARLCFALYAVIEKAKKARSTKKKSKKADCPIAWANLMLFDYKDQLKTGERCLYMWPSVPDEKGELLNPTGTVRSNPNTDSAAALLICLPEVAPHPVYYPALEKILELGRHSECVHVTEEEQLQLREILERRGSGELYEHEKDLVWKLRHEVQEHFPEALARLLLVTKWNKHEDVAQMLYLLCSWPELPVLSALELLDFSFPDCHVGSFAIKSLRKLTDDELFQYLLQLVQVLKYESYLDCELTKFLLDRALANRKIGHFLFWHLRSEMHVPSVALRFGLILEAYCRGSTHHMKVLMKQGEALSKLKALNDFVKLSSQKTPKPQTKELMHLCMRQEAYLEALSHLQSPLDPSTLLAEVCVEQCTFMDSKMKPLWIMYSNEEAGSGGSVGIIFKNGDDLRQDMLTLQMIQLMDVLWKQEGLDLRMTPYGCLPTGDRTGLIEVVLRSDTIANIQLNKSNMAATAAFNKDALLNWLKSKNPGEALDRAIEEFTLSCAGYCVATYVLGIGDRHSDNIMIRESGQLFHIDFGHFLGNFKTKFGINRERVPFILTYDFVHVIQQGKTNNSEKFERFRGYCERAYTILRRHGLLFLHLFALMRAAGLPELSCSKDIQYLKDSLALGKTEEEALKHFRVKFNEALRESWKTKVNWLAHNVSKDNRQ

Phosphatidylinositol 4,5-bisphosphate 3-kinase catalytic subunit beta isoform, sequence (P42338 whole entry, canonical isoform): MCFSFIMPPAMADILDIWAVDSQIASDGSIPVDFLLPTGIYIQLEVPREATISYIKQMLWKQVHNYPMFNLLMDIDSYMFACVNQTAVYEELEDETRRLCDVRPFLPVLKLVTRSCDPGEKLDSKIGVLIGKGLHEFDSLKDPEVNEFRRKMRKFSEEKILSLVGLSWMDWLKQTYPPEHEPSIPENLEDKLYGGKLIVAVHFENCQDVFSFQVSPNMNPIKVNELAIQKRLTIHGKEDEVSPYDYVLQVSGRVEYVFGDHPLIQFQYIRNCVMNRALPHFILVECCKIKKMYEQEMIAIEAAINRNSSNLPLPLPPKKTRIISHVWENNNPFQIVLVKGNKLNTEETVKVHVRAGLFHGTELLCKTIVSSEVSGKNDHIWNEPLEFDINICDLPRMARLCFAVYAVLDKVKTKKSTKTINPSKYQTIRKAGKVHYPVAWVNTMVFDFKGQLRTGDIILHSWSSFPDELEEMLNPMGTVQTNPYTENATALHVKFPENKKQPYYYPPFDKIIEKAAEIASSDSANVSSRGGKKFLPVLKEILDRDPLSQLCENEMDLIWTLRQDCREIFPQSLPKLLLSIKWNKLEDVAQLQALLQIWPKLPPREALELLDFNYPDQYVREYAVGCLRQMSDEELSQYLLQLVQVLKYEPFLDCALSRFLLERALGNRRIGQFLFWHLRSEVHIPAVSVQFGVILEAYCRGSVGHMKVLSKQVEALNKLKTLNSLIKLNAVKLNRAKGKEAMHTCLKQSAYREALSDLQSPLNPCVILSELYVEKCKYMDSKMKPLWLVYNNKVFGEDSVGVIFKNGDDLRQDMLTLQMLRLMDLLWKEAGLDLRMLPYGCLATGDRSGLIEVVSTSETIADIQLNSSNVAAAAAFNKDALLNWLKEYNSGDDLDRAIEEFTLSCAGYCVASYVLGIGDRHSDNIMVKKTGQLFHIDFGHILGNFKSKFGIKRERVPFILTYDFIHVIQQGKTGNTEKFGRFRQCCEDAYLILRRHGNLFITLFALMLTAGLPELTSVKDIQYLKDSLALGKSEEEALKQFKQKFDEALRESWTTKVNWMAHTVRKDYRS
Phosphatidylinositol 4,5-bisphosphate 3-kinase catalytic subunit alpha isoform, sequence (P42336 whole entry, canonical isoform): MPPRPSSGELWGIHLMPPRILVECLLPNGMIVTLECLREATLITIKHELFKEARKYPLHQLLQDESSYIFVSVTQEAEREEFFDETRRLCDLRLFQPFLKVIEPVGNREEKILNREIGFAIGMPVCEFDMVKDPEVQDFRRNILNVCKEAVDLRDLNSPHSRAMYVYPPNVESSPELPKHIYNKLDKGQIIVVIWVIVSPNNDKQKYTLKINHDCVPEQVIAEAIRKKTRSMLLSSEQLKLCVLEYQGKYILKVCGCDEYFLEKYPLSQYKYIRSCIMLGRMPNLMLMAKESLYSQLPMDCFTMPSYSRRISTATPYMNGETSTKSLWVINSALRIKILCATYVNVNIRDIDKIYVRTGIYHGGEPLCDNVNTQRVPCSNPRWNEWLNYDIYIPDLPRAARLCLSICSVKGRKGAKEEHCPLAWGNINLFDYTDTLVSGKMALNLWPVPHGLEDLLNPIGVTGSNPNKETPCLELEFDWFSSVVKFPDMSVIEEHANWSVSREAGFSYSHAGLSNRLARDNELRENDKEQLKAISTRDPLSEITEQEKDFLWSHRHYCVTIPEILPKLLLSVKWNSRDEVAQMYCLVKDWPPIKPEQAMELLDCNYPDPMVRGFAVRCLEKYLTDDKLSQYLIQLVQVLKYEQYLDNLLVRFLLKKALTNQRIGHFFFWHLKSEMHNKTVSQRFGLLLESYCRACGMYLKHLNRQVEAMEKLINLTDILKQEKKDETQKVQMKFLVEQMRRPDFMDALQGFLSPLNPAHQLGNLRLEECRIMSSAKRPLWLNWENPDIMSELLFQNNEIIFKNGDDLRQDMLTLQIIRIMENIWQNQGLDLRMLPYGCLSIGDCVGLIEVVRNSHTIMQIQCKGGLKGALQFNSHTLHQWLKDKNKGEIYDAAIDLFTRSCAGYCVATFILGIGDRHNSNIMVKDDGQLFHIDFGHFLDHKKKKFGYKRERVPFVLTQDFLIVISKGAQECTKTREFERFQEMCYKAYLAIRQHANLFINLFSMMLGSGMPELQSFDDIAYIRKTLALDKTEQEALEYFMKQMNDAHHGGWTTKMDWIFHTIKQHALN

`FC(F)(F)COc1ccc(-c2nnc(Nc3ccccc3)s2)cc1` gave an inhibition of growth at 10 µM (CCRF-CEM) of 19.2%, an inhibition of growth at 10 µM (HL-60(TB)) of 12.6% and an inhibition of growth at 10 µM (K562) of 57.4%. It also gave an inhibition of growth at 10 µM (MOLT-4) of 24.1%, an inhibition of growth at 10 µM (RPMI-8226) of 13.4% and an inhibition of growth at 10 µM (SR) of 39.3%. For the same compound, the inhibition of growth at 10 µM (A549) was 15%, the inhibition of growth at 10 µM (NCI-H226) was 20.5% and the inhibition of growth at 10 µM (NCI-H522) was 36.7%. The inhibition of growth at 10 µM (HCC 2998) was 27.5%, the inhibition of growth at 10 µM (HCT-15) was 50.9% and the inhibition of growth at 10 µM (HT-29) was 45.7%. It also gave an inhibition of growth at 10 µM (KM12) of 57.2%, an inhibition of growth at 10 µM (LOX IMVI) of 18.8% and an inhibition of growth at 10 µM (M14) of 12.8%. The inhibition of growth at 10 µM (UACC-62) was 24.4%, the inhibition of growth at 10 µM (OVCAR-4) was 12.8% and the inhibition of growth at 10 µM (NCI/ADR-RES) was 10.8%. The inhibition of growth at 10 µM (ACHN) was 16.1%, the inhibition of growth at 10 µM (CAKI-1) was 50% and the inhibition of growth at 10 µM (SN12C) was 13.1%. The inhibition of growth at 10 µM (UO-31) was 21.4%, the inhibition of growth at 10 µM (DU-145) was 14.8% and the inhibition of growth at 10 µM (MCF7 [1]) was 21.2%. For the same compound, the inhibition of growth at 10 µM (T47D) was 27.7%, the IC50 (MCF7 [2]) was 2.25 µM and the IC50 (MCF-10A) was 38 µM. It also gave a selectivity ratio [3] of 16.9, an IC50 [4] of 19.4 µM and an Activity (MCF7 [5]) of 26.96%. The Activity (MCF7 [6]) was 66.34%, the Activity (MCF7 [7]) was 4.55% and the Activity (MCF7 [8]) was 29.11%. It also gave an Activity (MCF7 [9]) of 4.15%, an Activity (MCF7 [10]) of 13.09% and an Activity (MCF7 [11]) of 9.72%. It also gave an IC50 [12] of 30.7 µM and an IC50 [13] of 73.7 µM.

From ChEMBL document CHEMBL5055672, “Design, Synthesis, Biological Evaluation, and Computational Studies of Novel Fluorinated Candidates as PI3K Inhibitors: Targeting Fluorophilic Binding Sites” (J Med Chem, 2021)
